The record followed here is patent US5656603A (Loyola University of Chicago, priority 1995, dated 1997).

The target in assay [1] is T1, partially purified human lung membrane-bound aminopeptidase P (Homo sapiens, UniProt O43895).
T1 construct: from tissue; host or cells: human lung microsomes
The assay can be described thus: Aminopeptidase P inhibition, release of arginine from Arg-Pro-Pro (fluorescent assay). The class given is biochemical. As for the experimental part:
The IC50 of the compound of the present invention in relation to aminopeptidase P was also determined. […] The specificity of the compound of the present invention for other aminopeptidases was similarly determined as described in the Experimental Procedures herein.
(§1) Enzymes--Membrane-bound aminopeptidase P was purified to homogeneity from bovine lung (14) and from rat lung. Partially purified membrane-bound aminopeptidase P from human lung was obtained by treatment of lung microsomes with phosphatidylinositol-specific phospholipase C (B. thuringiensis) (ICN, Costa Mesa, Calif.) followed by centrifugation as described previously (14). Membrane dipeptidase was purified from rat lung microsomes (manuscript in preparation). Recombinant E. coli aminopeptidase P (22) and purified lamb kidney prolyl oligopeptidase (23) were generally supplied by Dr. Tadashi Yoshimoto (Nagasaki University). Purified porcine kidney prolidase and purified porcine kidney aminopeptidase M was obtained from Sigma (St. Louis, Mo.).
Enzyme Kinetics--Aminopeptidase P activity was determined by measuring the release of arginine from Arg-Pro-Pro by a fluorescent assay described previously (14). […] Each mixture was run in duplicate. Aliquots were removed from each incubation mixture at various times and assayed for the amount of arginine present to determine the reaction velocity. In general, reaction velocities were calculated from data representing less than 20% cleavage of substrate. Ki and Ki ' (=αKi) were determined from plots of 1/v versus concentration of inhibitor "i" (26) and S/v versus concentration of inhibitor "i" (27), respectively. These parameters were also determined from the slope replot and 1/v-intercept replot, respectively, of the 1/v versus 1/S plot (28). […] The values from the two treatments of the data were averaged for each experiment. Experiments for each enzyme preparation were performed twice and the results averaged.

The next assay deals with T2, prolidase (Sus scrofa, UniProt A0A5G2QQV1).
T2 construct: Purified porcine kidney prolidase and purified porcine kidney aminopeptidase M was obtained from Sigma; purchased Sigma (St. Louis, Mo.); host or cells: porcine kidney
T2 sequence (A0A5G2QQV1 1-463): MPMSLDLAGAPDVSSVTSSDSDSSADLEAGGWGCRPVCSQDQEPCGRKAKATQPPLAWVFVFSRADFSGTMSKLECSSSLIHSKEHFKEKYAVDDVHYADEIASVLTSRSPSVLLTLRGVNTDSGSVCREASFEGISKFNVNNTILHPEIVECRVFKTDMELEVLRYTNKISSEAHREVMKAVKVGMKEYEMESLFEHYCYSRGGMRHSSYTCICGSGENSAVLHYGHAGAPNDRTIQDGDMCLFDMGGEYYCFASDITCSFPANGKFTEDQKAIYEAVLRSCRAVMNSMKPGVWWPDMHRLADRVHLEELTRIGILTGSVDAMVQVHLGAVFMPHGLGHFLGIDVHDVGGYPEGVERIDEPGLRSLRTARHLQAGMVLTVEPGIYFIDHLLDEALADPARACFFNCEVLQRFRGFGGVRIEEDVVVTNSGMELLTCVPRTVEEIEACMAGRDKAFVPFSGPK
The experiment in a line: Specificity of apstatin: prolidase. The class given is biochemical. To be noted: purified, porcine kidney; Arg-Pro, pH 8.0, HPLC-2.
Source text: as §1
Specificity of Apstatin--Apstatin was assayed for its ability to inhibit several other peptidases. […] Unless otherwise indicated, the source of each enzyme activity was a detergent extract of bovine lung prepared as described in (12-13). Activities were determined by a modification of the fluorescent assay described above (indicated by "FLUO") or by HPLC separation and quantitation of reaction products using the method described in (12) (method "HPLC-1") or the method described below (method "HPLC-2"). […]

Molecules are shown by their SMILES.

T1 sequence (O43895 22-674): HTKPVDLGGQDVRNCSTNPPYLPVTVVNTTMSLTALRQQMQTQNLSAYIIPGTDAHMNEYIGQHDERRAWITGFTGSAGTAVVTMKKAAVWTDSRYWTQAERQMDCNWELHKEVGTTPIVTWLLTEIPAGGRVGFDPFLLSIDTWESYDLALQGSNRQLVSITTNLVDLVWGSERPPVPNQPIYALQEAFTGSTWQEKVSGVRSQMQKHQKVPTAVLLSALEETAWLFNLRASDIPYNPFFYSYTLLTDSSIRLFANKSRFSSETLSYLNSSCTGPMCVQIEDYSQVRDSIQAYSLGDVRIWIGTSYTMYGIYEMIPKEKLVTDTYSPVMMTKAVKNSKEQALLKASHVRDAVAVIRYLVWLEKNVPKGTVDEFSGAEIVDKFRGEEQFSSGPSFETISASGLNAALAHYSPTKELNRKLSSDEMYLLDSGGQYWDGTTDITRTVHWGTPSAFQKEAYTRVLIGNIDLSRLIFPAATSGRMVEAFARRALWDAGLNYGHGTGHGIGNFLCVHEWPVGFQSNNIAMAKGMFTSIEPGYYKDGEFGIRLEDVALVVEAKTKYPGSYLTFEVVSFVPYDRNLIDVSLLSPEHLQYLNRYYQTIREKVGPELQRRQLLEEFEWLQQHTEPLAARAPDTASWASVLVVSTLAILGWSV

For the compound `C[C@H](NC(=O)[C@@H]1CCCN1C(=O)[C@@H]1CCCN1C(=O)[C@@H](O)[C@H](N)Cc1ccccc1)C(N)=O` [apstatin, N-[(2S, 3R)-3-amino-2-hydroxy-4-phenylbutanoyl]-L-prolyl-L-prolyl-Lalaninamide], the type of inhibition result in assay [1] (human lung aminopeptidase P) is reported as “linear mixed-type”. For the same compound, the “α (αKi = equilibrium constant for enzyme-inhibitor binding at infinite substrate concentration)” value in assay [1] (human lung, partially purified membrane-bound form) is 11. In addition, the IC50 against prolidase came to 4.9 µM.

A word on the IC50: it is the concentration needed to halve the response being measured. Read a high IC50 as a need for much substance.
